Converted amounts (≈) assume the structure as drawn. Like-named read-outs stand apart in the source and are kept apart here.
How the values were obtained:
M. avium = experiment: Antibacterial activity (MIC) against M. avium; type: cell-based, Mycobacterium avium
Procedure: Antibacterial activity of the compounds of the invention was measured in accordance with the method described in the literature of Antimicrob. […] In the tables, “OFLX” is an abbreviation of “OFLOXAIN”.

M. intracellulare = experiment: Antibacterial activity (MIC) against M. intracellulare; type: cell-based, Mycobacterium intracellulare
Procedure: Antibacterial activity of the compounds of the invention was measured in accordance with the method described in the literature of Antimicrob. Agents and Chemother., 38, 2877 (1994), and the results are shown in Tables 3 to 8 in terms of MIC (μg/ml). In the tables, “OFLX” is an abbreviation of “OFLOXAIN”.

[1] = tested on: Mycobacterium tuberculosis (RFP sensitive); experiment: Antibacterial activity (MIC) against Mycobacterium tuberculosis (RFP sensitive); type: cell-based
[2] = M. intracellulare N-294, Table 3
[3] = M. intracellulare N-313, Table 3
[4] = M. intracellulare N-338, Table 3
[5] = M. intracellulare N-345, Table 3
[6] = M. tuberculosis Kurono, Table 5
[7] = M. tuberculosis No. 40, Table 5
[8] = M. tuberculosis No. 68, Table 5
[9] = M. tuberculosis No. 41, Table 5
[10] = M. tuberculosis No. 43, Table 5

Row | SMILES | MIC (M. avium; M. avium N-357, Table 3) | MIC (M. avium; M. avium N-444, Table 3) | MIC (M. avium; M. avium N-458, Table 3) | MIC (M. avium; M. avium N-472, Table 3) | MIC (M. intracellulare; [2]) | MIC (M. intracellulare; [3]) | MIC (M. intracellulare; [4]) | MIC (M. intracellulare; [5]) | MIC ([1]; M. tuberculosis H37Rv, Table 5) | MIC [1, 6] | MIC [1, 7] | MIC [1, 8] | MIC [1, 9] | MIC [1, 10] | also measured
1 | CCC1CN(c2c(F)cc3c(=O)c(C(=O)O)cn(C4CC4F)c3c2OC)CCN1 (stereo not shown) [Compd. 18] | – | – | – | – | – | – | – | – | – | – | – | – | – | – | MIC (M. avium; M. avium N-357, Table 4 (series 2)): 0.50 µg/mL (≈ 1.23 µM); MIC (M. avium; M. avium N-444, Table 4 (series 2)): 2.0 µg/mL (≈ 4.91 µM); MIC (M. avium; M. avium N-458, Table 4 (series 2)): 1.0 µg/mL (≈ 2.45 µM); MIC (M. avium; M. avium N-472, Table 4 (series 2)): 8.0 µg/mL (≈ 19.6 µM); MIC (M. intracellulare; M. intracellulare N-294, Table 4 (series 2)): 2.0 µg/mL (≈ 4.91 µM); MIC (M. intracellulare; M. intracellulare N-313, Table 4 (series 2)): 0.25 µg/mL (≈ 0.614 µM); MIC (M. intracellulare; M. intracellulare N-338, Table 4 (series 2)): 0.50 µg/mL (≈ 1.23 µM); MIC (M. intracellulare; M. intracellulare N-345, Table 4 (series 2)): 0.50 µg/mL (≈ 1.23 µM); MIC ([1]; M. tuberculosis H37Rv, Table 6 (series 2)): 0.12 µg/mL (≈ 0.295 µM); MIC ([1]; M. tuberculosis Kurono, Table 6 (series 2)): 0.12 µg/mL (≈ 0.295 µM); MIC ([1]; M. tuberculosis No. 40, Table 6 (series 2)): 0.12 µg/mL (≈ 0.295 µM); MIC ([1]; M. tuberculosis No. 41, Table 6 (series 2)): 0.06 µg/mL (≈ 0.147 µM); MIC ([1]; M. tuberculosis No. 43, Table 6 (series 2)): 1.0 µg/mL (≈ 2.45 µM); MIC ([1]; M. tuberculosis No. 68, Table 6 (series 2)): 0.25 µg/mL (≈ 0.614 µM)
2 | COc1c(N2CC(N)C3(CC3)C2)c(F)cc2c(=O)c(C(=O)O)cn(C3CC3)c12 (stereo not shown) [Compd. 7] | 0.39 µg/mL (≈ 1.01 µM) | 1.56 µg/mL (≈ 4.03 µM) | 0.78 µg/mL (≈ 2.01 µM) | 6.25 µg/mL (≈ 16.1 µM) | 0.78 µg/mL (≈ 2.01 µM) | 0.2 µg/mL (≈ 0.516 µM) | 0.39 µg/mL (≈ 1.01 µM) | 1.56 µg/mL (≈ 4.03 µM) | – | – | – | – | – | – | –
3 | C[C@H]1COc2c(N3CC4CCCNC4C3)c(F)cc3c(=O)c(C(=O)O)cn1c23 (stereo partly shown) [Compd. 13] | 0.39 µg/mL (≈ 1.01 µM) | 0.78 µg/mL (≈ 2.01 µM) | 0.20 µg/mL (≈ 0.516 µM) | 1.56 µg/mL (≈ 4.03 µM) | 1.56 µg/mL (≈ 4.03 µM) | 0.39 µg/mL (≈ 1.01 µM) | 1.56 µg/mL (≈ 4.03 µM) | 3.13 µg/mL (≈ 8.08 µM) | 0.05 µg/mL (≈ 0.129 µM) | 0.05 µg/mL (≈ 0.129 µM) | 0.05 µg/mL (≈ 0.129 µM) | 0.10 µg/mL (≈ 0.258 µM) | – | – | –
4 | CO[C@H]1/C=C/O[C@@]2(C)Oc3c(C)c(O)c4c(O)c(c(/C=N/N5CCN(C)CC5)c(O)c4c3C2=O)NC(=O)/C(C)=C\C=C\[C@H](C)[C@H](O)[C@@H](C)[C@@H](O)[C@@H](C)[C@H](OC(C)=O)[C@@H]1C [RFP, rifampicin, reference compound] | – | – | – | – | – | – | 3.13 µg/mL (≈ 3.8 µM) | 3.13 µg/mL (≈ 3.8 µM) | – | – | – | – | – | – | MIC (M. avium; Mycobacterium avium, M. avium N-357, Table 3, read-out: MIC): 50 µg/mL (≈ 60.8 µM); MIC (M. avium; Mycobacterium avium, M. avium N-458, Table 3, read-out: MIC): 100 µg/mL (≈ 122 µM); MIC (M. intracellulare; Mycobacterium intracellulare, M. intracellulare N-313, Table 3, read-out: MIC): 0.78 µg/mL (≈ 0.948 µM); MIC (M. intracellulare; Mycobacterium intracellulare, M. intracellulare N-294, Table 3, read-out: MIC): 3.13 µg/mL (≈ 3.8 µM); MIC ([1]; Mycobacterium tuberculosis, H37RV, M. tuberculosis H37Rv, Table 5, read-out: MIC): 0.2 µg/mL (≈ 0.243 µM); MIC ([1]; Mycobacterium tuberculosis, M. tuberculosis Kurono, Table 5, read-out: MIC): 0.1 µg/mL (≈ 0.122 µM); MIC ([1]; Mycobacterium tuberculosis, M. tuberculosis No. 40, Table 5, read-out: MIC): 0.1 µg/mL (≈ 0.122 µM); MIC ([1]; Mycobacterium tuberculosis, M. tuberculosis No. 41, Table 5, read-out: MIC): 0.05 µg/mL (≈ 0.0608 µM); MIC ([1]; Mycobacterium tuberculosis, M. tuberculosis No. 43, Table 5, read-out: MIC): 3.13 µg/mL (≈ 3.8 µM); MIC ([1]; Mycobacterium tuberculosis, M. tuberculosis No. 68, Table 5, read-out: MIC): 3.13 µg/mL (≈ 3.8 µM)
5 | O=C(O)c1cn(C2CC2)c2c(Cl)c(N3CC4CCCNC4C3)c(F)cc2c1=O (stereo not shown) [Compd. 1] | 0.10 µg/mL (≈ 0.246 µM) | 0.20 µg/mL (≈ 0.493 µM) | 0.20 µg/mL (≈ 0.493 µM) | 1.56 µg/mL (≈ 3.84 µM) | 0.39 µg/mL (≈ 0.961 µM) | 0.10 µg/mL (≈ 0.246 µM) | 0.39 µg/mL (≈ 0.961 µM) | 0.39 µg/mL (≈ 0.961 µM) | 0.025 µg/mL (≈ 0.0616 µM) | 0.013 µg/mL (≈ 0.032 µM) | 0.025 µg/mL (≈ 0.0616 µM) | 0.025 µg/mL (≈ 0.0616 µM) | <0.003 µg/mL | 0.20 µg/mL (≈ 0.493 µM) | –
6 | COc1c(N2CC(N)C3(CC3)C2)c(F)cc2c(=O)c(C(=O)O)cn([C@@H]3C[C@@H]3F)c12 (stereo partly shown) [Compd. 8] | 1.56 µg/mL (≈ 3.85 µM) | 1.56 µg/mL (≈ 3.85 µM) | 0.78 µg/mL (≈ 1.92 µM) | 3.13 µg/mL (≈ 7.72 µM) | 1.56 µg/mL (≈ 3.85 µM) | 0.39 µg/mL (≈ 0.962 µM) | 1.56 µg/mL (≈ 3.85 µM) | 1.56 µg/mL (≈ 3.85 µM) | 0.10 µg/mL (≈ 0.247 µM) | 0.05 µg/mL (≈ 0.123 µM) | 0.10 µg/mL (≈ 0.247 µM) | 0.20 µg/mL (≈ 0.493 µM) | 0.006 µg/mL (≈ 0.0148 µM) | 0.78 µg/mL (≈ 1.92 µM) | –
7 | Cc1c(N2CC(N)C3(CC3)C2)c(F)cc2c(=O)c(C(=O)O)cn(C3CC3)c12 (stereo not shown) [Compd. 11] | 0.39 µg/mL (≈ 1.05 µM) | 1.56 µg/mL (≈ 4.2 µM) | 0.39 µg/mL (≈ 1.05 µM) | 3.13 µg/mL (≈ 8.43 µM) | 1.56 µg/mL (≈ 4.2 µM) | 0.39 µg/mL (≈ 1.05 µM) | 1.56 µg/mL (≈ 4.2 µM) | 3.13 µg/mL (≈ 8.43 µM) | 0.05 µg/mL (≈ 0.135 µM) | 0.05 µg/mL (≈ 0.135 µM) | 0.05 µg/mL (≈ 0.135 µM) | 0.05 µg/mL (≈ 0.135 µM) | 0.013 µg/mL (≈ 0.035 µM) | 0.39 µg/mL (≈ 1.05 µM) | –
